System: human brain
Test: CNV (Contingent Negative Variation) method, inhalation of fragrance compositions by a panel of subjects
Format: in vivo
Details: 2 wt % isopulegol added to fragrance A; fragrance A as control; inhaled; panel of 7 subjects; FIG. 3
Experimental: The stimulating effect of isopulegol was determined by the CNV (Contingent Negative Variation) method as described below and briefly summarized in FIGS. 1 and 2.
The CNV was measured using a digital electroencephalograph BIOSEMi (registered trademark). Electrodes for the CNV measurement were placed at Fp1, Fp2, F4, Fz, F3, T7, C3, Cz, C4, T8, P4, Pz, P3, O1, Oz, O2 according to the international 10-20 system, electrodes for ear lobes were set to indifferent electrodes, and brain waves were recorded at a time constant of 5.0 seconds referenced to the linked earlobes. In order to check artifacts of eye movement to a brain wave, vertical and horizontal movements of the left eye were also recorded.
Confirmation of a stimulative effect of a sample was conducted by steps of delivering a warning stimulus S1 (tone of 60-65 dB), followed 2300 ms later by a second stimulus S2 (light source). Test fragrance compositions were inhaled from jars disposed a few (e.g. 15-20) centimetres from the subjects' nose during each period of acquisition. […] The base line was determined from an average voltage of a brain wave in a time period of 500 ms before S1. The evaluation of the CNV waveform was conducted according to the method of Tori et al. (op. cit.), in which CNV was evaluated by the area (unit: ms×[…]) of an early component between 400 ms to 1,000 ms after the warning sound stimulus (S1).

With `C=C(C)[C@@H]1CC[C@@H](C)C[C@H]1O` (racemic) [isopulegol] the “CNV activity (area under the curve) of fragrance A + isopulegol versus fragrance A alone” value was “enhances the CNV activity of fragrance A”.

— patent US12378500B2, “Liquid laundry product comprising a fragrance composition comprising isopulegol” (TAKASAGO INTERNATIONAL CORPORATION, priority 2016, dated 2025)
